Test results taken from ChEMBL document CHEMBL3988442, “University of Dundee, Small-Polar-MMV Screening Library” (2021).
“And” between values parts separate entries of the source, which are not always exact repeats. Equal entries are not always repeated.

Assays:
ClpP1P2 = ClpP1P2 (Mycobacterium tuberculosis (strain ATCC 25618 / H37Rv), UniProt P9WPC3+P9WPC5); test: in vitro assay to detect presence of AMC directly proportional to the activity of ClpP1P2. GHDDI collaboration.; type: functional
Histidine--tRNA ligase = biological target: T1, Histidine--tRNA ligase (Leishmania infantum, UniProt A4I591); test: Leishmania infantum Histidine tRNA synthetase (LdHisRS); type: functional
T1 sequence (A4I591 whole entry): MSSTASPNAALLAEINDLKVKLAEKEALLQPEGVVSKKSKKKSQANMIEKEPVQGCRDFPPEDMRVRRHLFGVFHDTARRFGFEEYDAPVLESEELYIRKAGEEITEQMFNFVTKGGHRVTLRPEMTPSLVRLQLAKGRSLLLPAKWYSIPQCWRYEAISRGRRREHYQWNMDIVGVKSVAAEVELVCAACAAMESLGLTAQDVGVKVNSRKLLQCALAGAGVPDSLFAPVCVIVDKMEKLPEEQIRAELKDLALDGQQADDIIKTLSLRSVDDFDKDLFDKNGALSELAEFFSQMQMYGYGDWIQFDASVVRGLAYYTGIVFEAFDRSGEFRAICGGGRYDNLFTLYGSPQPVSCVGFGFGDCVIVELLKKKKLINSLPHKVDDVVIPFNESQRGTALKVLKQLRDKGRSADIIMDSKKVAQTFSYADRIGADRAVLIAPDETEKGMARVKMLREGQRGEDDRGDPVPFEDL

[1] = microbe, parasite or virus in culture; conditions: Mycobacterium tuberculosis, 96 h, read-out: pIC50 (converted)
[2] = microbe, parasite or virus in culture; conditions: Mycobacterium tuberculosis, 72 h, read-out: pIC50 (converted)
Plasmodium falciparum = test: Calibr Malaria Delayed Death Assay SOP; type: functional, organism-based
Tryptophan--tRNA ligase = Tryptophan--tRNA ligase (Mycobacterium tuberculosis (strain ATCC 25618 / H37Rv), UniProt P9WFT3); test: Biochemical assay for Mt-TrpRS; type: functional
Leishmania donovani = test: Leishmania intramacrophage assay; type: functional, organism-based; conditions: for IC50: Leishmania donovani

Cc1cc(C)n(CC(=O)N2C[C@@H]3CC[C@H](C2)N(CC2CCC2)C3)c(=O)n1
IC50 (ClpP1P2): > 100 µM
IC50 (Histidine--tRNA ligase): 16.8 µM and 12 µM

Cn1cc(-c2c(C#N)c(N)nc3c2CCc2[nH]ccc2-3)cn1
IC50 (ClpP1P2): > 100 µM
IC50 (Histidine--tRNA ligase): 11.2 µM and 16.9 µM

c1ccc(-c2cc(CN3C[C@@H]4CC[C@H](C3)N(CC3CCC3)C4)on2)cc1
IC50 [1]: 13.3 µM
IC50 (Histidine--tRNA ligase): 32.5 µM and 36.9 µM
IC50 [2]: 8.42 µM

CC(=O)Nc1ccc2nc(CN(C)Cc3snnc3C)ccc2c1
IC50 (ClpP1P2): > 100 µM
IC50 (Histidine--tRNA ligase): 51.3 µM and 57.2 µM

c1ccc2c(c1)CCN(c1nc(-c3ccncc3)nc3c1CCNC3)C2
IC50 [1]: > 50.1 µM
IC50 (Histidine--tRNA ligase): 9.69 µM and 11.1 µM
IC50 [2]: 49.7 µM

CCCN1C[C@H]2CC[C@@H]1CN(Cc1ccc(-n3cccn3)cc1)C2
IC50 [1]: 21.4 µM
IC50 (Histidine--tRNA ligase): 33.2 µM and 35 µM
IC50 [2]: 4.84 µM

CN(CC1CCN(c2ccccc2)C1)c1ccc(Cn2ccnc2)cn1 (stereo unspecified)
IC50 [1]: 27.4 µM
IC50 (Histidine--tRNA ligase): 91.9 µM and 98.7 µM
IC50 [2]: 27.7 µM

Cn1cc(-c2c(C#N)c(N)nc3c2CCc2[nH]ccc2-3)cc1C#N
IC50 (ClpP1P2): > 100 µM
IC50 (Histidine--tRNA ligase): 28 µM and 21.7 µM

CCCc1ccc(OC23CCCN(CC2)C3)c(OC)c1 (stereo unspecified)
IC50 [1]: 22.7 µM
IC50 (Histidine--tRNA ligase): 38 µM and 39.5 µM
IC50 [2]: 23.5 µM

CCC[C@@H]1CN(C(=O)c2cc3ccccc3cc2O)C[C@H]1N(C)C
IC50 (ClpP1P2): > 100 µM
IC50 (Histidine--tRNA ligase): 38 µM and 45 µM

c1ccc(Oc2cccc(OC34CCCN(CC3)C4)c2)cc1 (stereo unspecified)
IC50 [1]: 15.9 µM
IC50 (Histidine--tRNA ligase): 53.2 µM and 46.4 µM
IC50 [2]: 18.1 µM

c1ccc2sc(N3CCCN(c4ncnc5c4CCNC5)CC3)nc2c1
IC50 (Histidine--tRNA ligase): 76.9 µM and 73.9 µM
pIC50 (Plasmodium falciparum): 5.791
IC50 (Plasmodium falciparum; Plasmodium falciparum): 1.56 µM

Cc1c(CN2CCOCC2)c(O)n(CCO)c(=O)c1C#N
IC50 (Tryptophan--tRNA ligase): > 195 µM
IC50 (Histidine--tRNA ligase): 35.3 µM and 35.6 µM

N#CCCSc1sc2c(O)cc(O)nc2c1C#N
IC50 (Tryptophan--tRNA ligase): > 195 µM
IC50 (Histidine--tRNA ligase): 18.7 µM and 27.5 µM

Cn1nc2c(cc1=O)CN(Cc1nc(-c3ccccn3)no1)CC2
IC50 (Histidine--tRNA ligase): > 100 µM

Cn1cc(NS(=O)(=O)c2ccc(F)c(F)c2)ccc1=O
IC50 (Histidine--tRNA ligase): > 100 µM

Cc1ccccc1-c1noc(CN2CCc3nn(C)c(=O)cc3C2)n1
IC50 (Histidine--tRNA ligase): 25.2 µM and 21.2 µM

CNc1cc2c(nn1)CCN(C(=O)c1coc(Br)c1)C2
IC50 (ClpP1P2): > 100 µM
IC50 (Histidine--tRNA ligase): 51.3 µM and 66.4 µM

Cc1noc(C)c1CN1CCc2nn(C(C)C)c(=O)cc2C1
IC50 (Histidine--tRNA ligase): 86 µM and > 100 µM

CC(C)c1nn(C)c(N(C)C)c1CNCc1ccccc1CN(C)C
IC50 (Histidine--tRNA ligase): > 100 µM

COc1cc(CNc2cnn(C)c2)cc2c1OCCO2
IC50 (Histidine--tRNA ligase): > 100 µM

Cc1ccc(C(=O)N2CCN(C(=O)NC(C)Cn3ccnc3)CC2)o1 (stereo unspecified)
IC50 (Histidine--tRNA ligase): > 100 µM

O=C(Cc1csc(-c2ccco2)n1)N1CCN(c2cnccn2)CC1
IC50 (Histidine--tRNA ligase): 53.2 µM and 34.3 µM

CC(C)c1nc(CC(=O)Nc2nc(CN3CCCCCC3)cs2)cs1
IC50 [1]: 21.2 µM
IC50 (Histidine--tRNA ligase): 39.8 µM and 33.5 µM
IC50 [2]: 23.2 µM

Cc1nccn1CCCn1cncc1-c1ccc2c(c1)CCC(C)N2C (stereo unspecified)
IC50 (ClpP1P2): > 100 µM
IC50 (Histidine--tRNA ligase): 6.86 µM and 7.15 µM

CCN1c2ccc(-c3cncn3CCCn3ccnc3C)cc2CC1C.Cl (stereo unspecified)
IC50 (ClpP1P2): > 100 µM
IC50 [1]: 46.6 µM
IC50 (Histidine--tRNA ligase): 39.6 µM and 37.5 µM
IC50 [2]: 42.9 µM

O=C(Cn1c(-c2ccco2)cc2cccnc21)N1CCCC1
IC50 (ClpP1P2): > 100 µM
IC50 (Histidine--tRNA ligase): 21.5 µM and 27.9 µM

COc1cccc(Nc2nc(-c3ccncc3)nc3c2CNCC3)c1.Cl
pIC50 (Leishmania donovani): 4.645 and 4.976

COc1cccc(Nc2nc(N3CCCC3)nc3c2CNCC3)c1.Cl
pIC50 (Leishmania donovani): 5.277
IC50 (Leishmania donovani): 4.47 µM

Cl.NCC(=O)N1CCC(c2ccnc(Nc3cc(C(F)(F)F)ccn3)n2)C1 (stereo unspecified)
pIC50 (Leishmania donovani): 4.798
IC50 (Leishmania donovani): 15 µM

Cc1nc(C2(O)CCCNCC2)sc1CCOc1ccccc1Cl.Cl (stereo unspecified)
pIC50 (Leishmania donovani): 5.014
IC50 (Leishmania donovani): 12.5 µM

Cc1ccc(S(=O)(=O)N2CCc3nc(C4CCNCC4)ncc3C2)cc1
IC50 [1]: 6.39 µM
IC50 (Histidine--tRNA ligase): > 100 µM and 97.1 µM
IC50 [2]: > 50.1 µM

CC(C)C[C@H](N)C(=O)N1CC2(CCNCC2)c2cc(Cl)ccc21.Cl.Cl
pIC50 (Leishmania donovani): 4.898 and 5.256

Fc1cccc(N2C[C@H]3CCN(c4cccnc4)C[C@H]3C2)c1
IC50 [1]: > 50.1 µM
IC50 (Histidine--tRNA ligase): 40.6 µM and 35.1 µM
IC50 [2]: 45.2 µM

CCc1ccc(CN2CCC3(CC2)CC(N2CCN(C)CC2)CO3)cc1.O=C(O)C(F)(F)F (stereo unspecified)
pIC50 (Leishmania donovani): 4.908 and 5.404

c1cncc(-c2ccc3c(c2)CCC32CCN(Cc3nccs3)CC2)c1
IC50 [1]: 36.3 µM
IC50 (Histidine--tRNA ligase): 75.2 µM and 52.4 µM
IC50 [2]: 36.1 µM

Clc1ccc(C2(CNC3=NCCN3)CCCCC2)cc1.I
IC50 (Histidine--tRNA ligase): 85 µM and 71.6 µM
pIC50 (Plasmodium falciparum): 6.717 and 7.044
